The results in this text go back to ChEMBL document CHEMBL1149841, “Synaptosides A and A1, triterpene glycosides from the sea cucumber Synapta maculata containing 3-O-methylglucuronic acid and their cytotoxic activity against tumor cells” (J Nat Prod, 2008).

Test [1] has as its system HeLa. Kind of test: Cytotoxicity against human HeLa cells after 12 hrs at 14.1 ug/ml by MTS reduction assay. It is filed as functional, cell-based. A general note: Tetrazolium dyes change colour on reduction, which living cells bring about.
The test system of test [2] is HeLa. Kind of test: Cytotoxicity against human HeLa cells after 12 hrs by MTS reduction assay. It is filed as functional, cell-based.

The source made the active and inactive calls. No cut-off for these calls is given here.

In the case of `CO[C@@H]1[C@@H](O)[C@H](O[C@@H]2[C@@H](O)[C@H](O[C@H]3[C@H](O)[C@@H](O)[C@H](O[C@H]4[C@H](O[C@H]5CC[C@]6(C)C7=C(C(=O)C[C@H]6C5(C)C)[C@]5(C)CC[C@H]6[C@]5(CC7)C(=O)O[C@@]6(C)CC(=O)CC(C)C)OC[C@@H](O[C@@H]5O[C@H](COS(=O)(=O)O)[C@@H](O)[C@H](O)[C@H]5O)[C@@H]4O)O[C@@H]3C)O[C@H](CO)[C@H]2O)O[C@H](C(=O)O)[C@H]1O`, in the test on HeLa [1], the result was inactive.

For the compound `CO[C@@H]1[C@@H](O)[C@H](O[C@@H]2[C@@H](O)[C@H](O[C@H]3[C@H](O)[C@@H](O)[C@H](O[C@H]4[C@H](O[C@H]5CC[C@]6(C)[C@@H]7CC[C@]89C(=O)O[C@@](C)(CC(=O)CC(C)C)[C@H]8CC[C@@]9(C)C7=CC[C@H]6C5(C)C)OC[C@@H](O[C@@H]5O[C@H](COS(=O)(=O)[O-])[C@@H](O)[C@H](O)[C@H]5O)[C@@H]4O)O[C@@H]3C)O[C@H](CO)[C@H]2O)O[C@H](C(=O)[O-])[C@H]1O.[Na+].[Na+]` [SYNAPTOSIDE A], in the test with HeLa [2], the IC50 was determined as 8.6 µg/mL.

Broadly, the IC50 is the concentration needed to halve the response being measured. A higher IC50 goes with lower potency.
